In patent US20140088144A1, “INHIBITING MICROBIAL INFECTIONS” (THE UNIVERSITY OF KANSAS, priority 2012, published 2014):

Columns and labels:
[1] = target: T1, RhaS(163-278) (RhaS DNA-binding domain) (Escherichia coli, UniProt P09377); test: In vivo dose-response, rhaB-lacZ fusion activated by RhaS(163-278) (RhaS-DBD); assay type: cell-based, E. coli
T1 construct: expressed in transfected cells; host or cells: E. coli SME3635 (rhaB-lacZ, pHG165 expressing RhaS(163-278))
Text: For dose-response studies, a rhaB-lacZ reporter strain was designed that allowed IPTG induction of RhaS or RhaS(163-278) expression from pHG165 (and thus rhaB-lacZ expression). The strain was constructed by introducing malP::lacIq into SME3000 via phage P1vir-mediated generalized transduction. First, SME3000 was transduced with Δcrp-3 zhc-511::Tn10 from SME1403, selecting for tetracycline resistance and screening for sorbitol deficiency (indicating Δcrp) using MacConkey sorbitol. SME3000 Acrp-3 zhc-511::Tn10 was transduced with crp^+ malP::lacI^q from SG22166, selecting for growth on minimal sorbitol and screening for maltose deficiency (indicating malP::lacI^q) using MacConkey maltose. […]
The top hit identified in the screen was 1-ethyl-4-(nitromethyl)-3-quinolin-2-yl-4H-quinoline, Compound 2. […] Lysis/ONPG buffer (50 μL, as in Primary Screen) was added to each well and the plate was immediately placed into a PowerWave XS plate reader (BioTek Instruments, Inc., Winooski, Vt.), set to read the OD420 of each well every 15 min for 4 hr. […] Due to differences in kinetics of lacZ reporter expression, the rhaB-lacZ strains were analyzed at 4 hours and the hts-lacZ strain was analyzed at 1 hr. Percent activity was calculated for each condition as described above, using the single time point with appropriate OD420 levels for each strain. […]

[2] = tested on: LacI-repressed hts-lacZ fusion; test: LacI-repressed hts-lacZ control reporter fusion (β-galactosidase); assay type: cell-based, E. coli; settings: hts-lacZ control (SME3359)
Text: The control strain for the secondary high-throughput screen and subsequent experiments was SME3359, and carries the LacI-repressed fusion and LacI-expressing pHG165lacI. The fusion consists of lacZ under the control of an artificial promoter (Phts) with an induced expression level similar to that of the induced rhaBAD operon. Phts is regulated by Lad and induced with IPTG. The Phts core promoter elements include a near-consensus −35 sequence and a −10 sequence followed by a lacO1 operator sequence that overlaps the transcription start site with the same spacing as lacO1 at lacZYA. To construct the upstream half of Phts, oligo 2829 was annealed to oligo 2788 and the primers were extended using the Expand High Fidelity PCR System (Roche Applied Science, Indianapolis, Ind.). The downstream half of the Phts promoter was constructed by similarly annealing and extending oligos 2789 and 2790.
The top hit identified in the screen was 1-ethyl-4-(nitromethyl)-3-quinolin-2-yl-4H-quinoline, Compound 2. […] Lysis/ONPG buffer (50 μL, as in Primary Screen) was added to each well and the plate was immediately placed into a PowerWave XS plate reader (BioTek Instruments, Inc., Winooski, Vt.), set to read the OD420 of each well every 15 min for 4 hr. […] Due to differences in kinetics of lacZ reporter expression, the rhaB-lacZ strains were analyzed at 4 hours and the hts-lacZ strain was analyzed at 1 hr. Percent activity was calculated for each condition as described above, using the single time point with appropriate OD420 levels for each strain. […] IC50 and maximal inhibition values were calculated using the XLfit add-in for Microsoft Excel (ID Business Solutions, Guildford, UK), and graphs were drawn using Prism (GraphPad, La Jolla, Calif.).
In vivo dose-response assays were performed using a procedure described previously. […] Bacterial cultures were mixed with varying concentrations of SE-1 (2.2% DMSO, final), induced with 6.5 mM IPTG for 3 h at 37° C., lysed and β-galactosidase activity was measured. […] IC50 values were calculated and graphs were drawn using Prism (GraphPad, La Jolla, Calif.).

[3] = target: Rns (Escherichia coli, UniProt P16114); test: In vivo activation by Rns (promoter-lacZ fusion); assay type: cell-based, Enterotoxigenic E. coli; settings: compared with full-length RhaS
Text: Expression of promoter-lacZ fusions regulated by the indicated activators, or the control Lad regulated fusion at the indicated concentrations of Compound 1. Average of three independent experiments, with two replicates in each experiment.
The compounds of the invention can be used for inhibition of virulence in vivo and in vitro activation by Rns and VirF.

[4] = target: VirF (Shigella flexneri, UniProt P0A2T1); test: % Inhibition at 82.5 μM, VirF; assay type: cell-based; settings: 82.5 μM
Chain of VirF (P0A2T1 whole entry): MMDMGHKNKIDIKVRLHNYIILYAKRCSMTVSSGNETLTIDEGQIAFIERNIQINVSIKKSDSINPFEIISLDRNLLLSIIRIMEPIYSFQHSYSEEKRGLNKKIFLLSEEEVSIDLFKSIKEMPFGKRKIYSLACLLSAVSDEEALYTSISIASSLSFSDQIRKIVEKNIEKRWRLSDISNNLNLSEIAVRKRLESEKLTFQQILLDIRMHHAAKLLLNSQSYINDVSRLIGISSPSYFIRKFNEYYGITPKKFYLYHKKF

T1 sequence (P09377 163-278): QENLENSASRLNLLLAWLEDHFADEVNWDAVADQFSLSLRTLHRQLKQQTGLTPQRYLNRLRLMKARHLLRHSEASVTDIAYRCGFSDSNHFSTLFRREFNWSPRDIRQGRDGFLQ
Chain of Rns (P16114 whole entry, the tested form may be a part): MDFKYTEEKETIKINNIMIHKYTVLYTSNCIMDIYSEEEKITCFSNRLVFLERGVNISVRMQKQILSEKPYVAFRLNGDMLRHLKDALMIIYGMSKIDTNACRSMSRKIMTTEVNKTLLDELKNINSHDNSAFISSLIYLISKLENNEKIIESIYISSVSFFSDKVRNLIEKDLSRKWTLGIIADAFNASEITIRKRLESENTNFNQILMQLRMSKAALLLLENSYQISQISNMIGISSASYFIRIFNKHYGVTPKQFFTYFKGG

In the case of `CCCCN1C=C(c2ccc3ccccc3n2)C(C[N+](=O)[O-])c2ccccc21` (stereo not drawn) [Compound 1, 1-butyl-4-(nitromethyl)-3-quinolin-2-yl-4H-quinoline], the “inhibition of RhaS(163-278)-activated expression” value ([1]; RhaS-DBD) is reported as “fully inhibit expression”, the IC50 ([1]; RhaS-DBD (SME3635), read-out: IC50, rhaB-lacZ activation by RhaS(163-278)) is reported as ~10 µM and the “inhibition of the LacI-repressed fusion” value [2] is reported as “small amount of non-specific inhibition”. The “inhibition of the LacI-repressed fusion” value ([2]; listed as SE-1) was “some non-specific inhibition”, the “inhibition of in vivo activation by Rns” value [3] was “similar, if not greater, extent than full-length RhaS” and the “% Inhibition at 82.5 μM VirF” value [4] was 100%.
